Results taken from PubChem BioAssay (NCI).
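The compound was tested at five concentrations on cells cultured in 96-well plates, with a 48-hour exposure period. Here, GI50 denotes the concentration required for 50% inhibition of growth. TGI denotes the concentration required for complete inhibition of growth.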

Columns and labels:
Assay in all cases: inhibition of tumour cell growth, NCI panel, 48 h
[1] = system: HOP-62 NSCLC
[2] = system: NCI-H226 lung
[3] = system: SK-MEL-5 melanoma
[4] = system: A498 renal
[5] = system: 786-0 renal
[6] = system: UO-31 renal
[7] = system: CAKI-1 renal
[8] = system: SNB-19 CNS
[9] = system: A549 NSCLC
[10] = system: HCC-2998 colon
[11] = system: SF-268 CNS
[12] = system: CCRF-CEM leukemia
[13] = system: SF-539 CNS
[14] = system: OVCAR-3 ovarian
[15] = system: RXF 393 renal
[16] = system: SW-620 colon
[17] = system: DU-145 prostate
[18] = system: SNB-75 CNS
[19] = system: NCI-H460 lung
[20] = system: UACC-257 melanoma
[21] = system: HCT-116 colon
[22] = system: PC-3 prostate
[23] = system: OVCAR-4 ovarian
[24] = system: BT-549 breast
[25] = system: NCI-H23 lung
[26] = system: SR leukemia
[27] = system: NCI/ADR-RES ovarian
[28] = system: MDA-MB-435
[29] = system: IGROV1 ovarian
[30] = system: OVCAR-8 ovarian
[31] = system: TK-10 renal
[32] = system: HOP-92 NSCLC
[33] = system: HCT-15 colon
[34] = system: SK-MEL-2 melanoma
[35] = system: HL-60(TB) leukemia
[36] = system: U251 CNS
[37] = system: ACHN renal
[38] = system: HT29 colon
[39] = system: EKVX NSCLC
[40] = system: SK-OV-3 ovarian
[41] = system: OVCAR-5 ovarian
[42] = system: RPMI-8226 leukemia
[43] = system: MOLT-4 leukemia
[44] = system: MALME-3M melanoma
[45] = system: SK-MEL-28 melanoma
[46] = system: M14 melanoma
[47] = system: SF-295 CNS
[48] = system: UACC-62 melanoma
[49] = system: SN12C renal
[50] = system: KM12 colon
[51] = system: T-47D breast
[52] = system: COLO 205 colon
[53] = system: K-562 leukemia
[54] = system: MCF7 breast
[55] = system: HS 578T breast
[56] = system: MDA-MB-231 breast
[57] = system: NCI-H522 lung
[58] = system: LOX IMVI melanoma

Nc1cccc(CCN2CCN(CCCc3ccccc3)CC2)c1
TGI [1]: > 100 µM | TGI [2]: > 100 µM | TGI [3]: 34.3 µM | TGI [4]: > 100 µM | TGI [5]: 37.4 µM | TGI [6]: > 100 µM | TGI [7]: > 100 µM | TGI [8]: > 100 µM | TGI [9]: > 100 µM | TGI [10]: 28.2 µM | TGI [11]: > 100 µM | TGI [12]: > 100 µM | TGI [13]: 40.6 µM | TGI [14]: 41.2 µM | TGI [15]: 52.2 µM | TGI [16]: > 100 µM | TGI [17]: > 100 µM | TGI [18]: > 100 µM | TGI [19]: 71.4 µM | TGI [20]: 65.3 µM | TGI [21]: 36.7 µM | TGI [22]: > 100 µM | TGI [23]: > 100 µM | TGI [24]: > 100 µM | TGI [25]: > 100 µM | TGI [26]: 65.9 µM | TGI [27]: > 100 µM | TGI [28]: 36.9 µM | TGI [29]: > 100 µM | TGI [30]: 63.2 µM | TGI [31]: > 100 µM | TGI [32]: 53.8 µM | TGI [33]: 38.2 µM | TGI [34]: > 100 µM | TGI [35]: > 100 µM | TGI [36]: > 100 µM | TGI [37]: > 100 µM | TGI [38]: 46.5 µM | TGI [39]: > 100 µM | TGI [40]: > 100 µM | TGI [41]: > 100 µM | TGI [42]: > 100 µM | TGI [43]: > 100 µM | TGI [44]: 38 µM | TGI [45]: 88.4 µM | TGI [46]: 32.3 µM | TGI [47]: 70 µM | TGI [48]: 52.7 µM | TGI [49]: > 100 µM | TGI [50]: 81.5 µM | TGI [51]: 52.6 µM | TGI [52]: 34.8 µM | TGI [53]: > 100 µM | TGI [54]: 36.4 µM | TGI [55]: > 100 µM | TGI [56]: > 100 µM | TGI [57]: 30.1 µM | TGI [58]: 33.1 µM

CSc1nc(N)cc(Oc2ccc(-c3nc(Nc4cccc(C(F)(F)F)c4)n[nH]3)cc2)n1
GI50 [1]: 0.593 µM | TGI [1]: 4.99 µM | GI50 [2]: 1.81 µM | TGI [2]: 7.69 µM | GI50 [3]: 0.416 µM | TGI [3]: 1.57 µM | GI50 [4]: 0.486 µM | TGI [4]: 5.25 µM | GI50 [5]: 1.28 µM | TGI [5]: 4.86 µM | GI50 [6]: 1.6 µM | TGI [6]: 11.3 µM | GI50 [7]: 0.64 µM | TGI [7]: 3.67 µM | GI50 [8]: 1.22 µM | TGI [8]: 14.9 µM | GI50 [9]: 0.737 µM | TGI [9]: 9.51 µM | GI50 [10]: 1.33 µM | TGI [10]: 4.96 µM | GI50 [11]: 0.894 µM | TGI [11]: 12.5 µM | GI50 [12]: 0.773 µM | TGI [12]: > 43.5 µM | GI50 [13]: 0.621 µM | TGI [13]: 4.19 µM | GI50 [14]: 0.336 µM | TGI [14]: 1.22 µM | GI50 [15]: 0.504 µM | TGI [15]: 2.25 µM | GI50 [16]: 0.478 µM | TGI [16]: 13.6 µM | GI50 [17]: 1.28 µM | TGI [17]: 9.53 µM | GI50 [18]: 0.371 µM | TGI [18]: 4.46 µM | GI50 [19]: 0.44 µM | TGI [19]: 3.03 µM | GI50 [20]: 0.776 µM | TGI [20]: 6.34 µM | GI50 [21]: 0.456 µM | TGI [21]: 2.15 µM | GI50 [22]: 1.13 µM | TGI [22]: 9.41 µM | GI50 [23]: 2.06 µM | TGI [23]: 13.1 µM | GI50 [24]: 0.721 µM | TGI [24]: 6.82 µM | GI50 [25]: 0.893 µM | TGI [25]: 10.2 µM | GI50 [26]: 0.354 µM | TGI [26]: > 100 µM | GI50 [27]: 1.11 µM | TGI [27]: 7.45 µM | GI50 [28]: 0.255 µM | TGI [28]: 0.744 µM | GI50 [29]: 1.88 µM | TGI [29]: 18.3 µM | GI50 [30]: 1.36 µM | TGI [30]: 10.3 µM | GI50 [31]: 1.54 µM | TGI [31]: 7.73 µM | GI50 [32]: 1.3 µM | TGI [32]: 6 µM | GI50 [33]: 0.531 µM | TGI [33]: 8.07 µM | GI50 [34]: 0.789 µM | TGI [34]: 6.06 µM | GI50 [35]: 2.36 µM | TGI [35]: 9.23 µM | GI50 [36]: 0.548 µM | TGI [36]: 4.73 µM | GI50 [37]: 0.873 µM | TGI [37]: 9.64 µM | GI50 [38]: 0.432 µM | TGI [38]: 2.71 µM | GI50 [39]: 1.66 µM | TGI [39]: 10.1 µM | GI50 [40]: 0.516 µM | TGI [40]: 3.93 µM | GI50 [41]: 2.38 µM | TGI [41]: 14.6 µM | GI50 [42]: 1.9 µM | TGI [42]: 12.6 µM | GI50 [43]: 1.25 µM | TGI [43]: > 38.4 µM | GI50 [44]: 1.19 µM | TGI [44]: 8.42 µM | GI50 [45]: 1.46 µM | TGI [45]: 10.4 µM | GI50 [46]: 0.483 µM | TGI [46]: 3.85 µM | GI50 [47]: 0.784 µM | TGI [47]: 6.24 µM | GI50 [48]: 0.474 µM | TGI [48]: 4.72 µM | GI50 [49]: 1.15 µM | TGI [49]: 12.3 µM | GI50 [50]: 0.498 µM | TGI [50]: 4.46 µM | GI50 [51]: 0.81 µM | TGI [51]: 5.11 µM | GI50 [52]: 0.897 µM | TGI [52]: 4.05 µM | GI50 [53]: 0.522 µM | TGI [53]: > 35.3 µM | GI50 [54]: 0.357 µM | TGI [54]: 5.02 µM | GI50 [55]: 0.642 µM | TGI [55]: 9.29 µM | GI50 [56]: 1.79 µM | TGI [56]: 8.63 µM | GI50 [57]: 0.651 µM | TGI [57]: 4.06 µM | GI50 [58]: 0.52 µM | TGI [58]: 2.05 µM
